# Experimental data published in patent US20250326771A1, “PIPERAZINE DERIVATIVES USEFUL IN HIV THERAPY” (VIIV HEALTHCARE COMPANY, priority 2022, published 2025).
# What was measured:
# [1] = system: Jurkat HIV-luciferase clones; test: Jurkat latency reversal assay; assay type: cell-based; details: Homo sapiens, 48 h; Jurkat latency reversal assay potency; read-out: Jurkat pEC50 (converted)
# Description: Jurkat HIV-luciferase clones were maintained in RPMI medium 1640 (Gibco by Life Technologies) containing 10% (vol/vol) fetal bovine serum (SAFC/Sigma-Aldrich) and 25 units/mL penicillin, 25 units/mL streptomycin (Gibco by Life Technologies), and were split 1:4 every 3 to 4 days to maintain a cell density of ˜0.3 to 1 million cells/mL. The Jurkat clones were maintained with the addition of 500 nM EFV in the medium. Three Jurkat cell clones (C16, 115, and N6), each harboring one or two integrated HIV proviruses expressing the luciferase reporter gene, were added at equal amounts for a total of 5,000 cells per well to 384-well plates containing compound titrations. Dose-response testing was performed on compounds dissolved in dimethyl sulfoxide (DMSO; Fisher Scientific, Merelbeke, Belgium) dispensed in duplicate serial 3-fold, 14-point titrations using a D300e Digital Droplet Dispenser (Hewlett-Packard) to give final assay concentrations of 10 μM to […] in 50 μL of medium at 0.5% DMSO (vol/vol) final concentration. Cells and compound were incubated at 37° C. for 48 hours, unless otherwise indicated, followed by the addition of 20 μL of Steady-Glo® Luciferase (Promega). Luminescence resulting from the induction of the virally expressed luciferase was measured using an EnVision 2102 Multilabel Plate Reader (Perkin Elmer). Dose-response relationships were analyzed with GraphPad PRISM 6 using a four-parameter logistic regression model to calculate the concentration of compound that gives half-maximal response (EC50) and the maximal percent activation compared to the vehicle control.
# XIAP-BIR3 = XIAP-BIR3 (Homo sapiens (Human), UniProt P98170); test: BIR binding assay (FRET competition), XIAP BIR3
# Description: (§1) The BIR domain binding assays are FRET based competition assays that utilize His-tagged versions of each of the BIR2 and BIR3 domains from cIAP1, cIAP2, and XIAP (each domain assayed separately) each at a custom optimal concentration and a probe, 200 nM SMAC/DIABLO peptide […] labelled with AlexaFluor647 (part #crb 1110326h, Discovery Peptides). The assay is conducted in 50 mM HEPES, […], 1 mM CHAPS, 5% Glycerol, 1 mM DTT, in dI water with a final pH of 7.4 and final volume of 20 uL. Final protein domain concentrations are: 50 nM cIAP1-BIR3 (Part #APT-11-370 Reaction Biology), 100 nM XIAP-BIR3 (Part #APT-11-351 Reaction Biology), 200 nM XIAP-BIR2 (Part #APT-11-470 Reaction Biology), 325 nM cIAP2-BIR2 (Part #APT-11-489 Reaction Biology), 50 nM cIAP2-BIR3 (Part #APT-11-372 Reaction Biology), 325 nM cIAP1-BIR2 (Part #APT-11-487 Reaction Biology). Compounds were plated using a HP Tecan D300 printer in a final total volume of 202 nl and DMSO concentration normalized across the 15-point, 3-fold dilution series. Peptide and probe were prepared at 2× relative to the concentrations above in binding buffer, 10 uL added to the prepared compound plates, and incubated for 60 minutes. LANCE Eu-W1024 (part #AD0401 Perkin Elmer #, vendor) was prepared at 2× concentration in binding buffer for final concentration of 2 nM, 10 uL added to each well, and plates incubated for 30 minutes. Plates were read on an ENVISION multifunction plate reader with […] laser excitation to obtain the 615 nm/665 nm emission ratio as indicative of probe:protein proximity. Data was analyzed using GraphPad PRISM and curves fit using log(inhibitor) vs. response—Variable slope (four […] method to obtain IC50 and pIC50 values.
# cIAP2-BIR2 = cIAP2-BIR2 (Homo sapiens (Human), UniProt Q13489); test: BIR binding assay (FRET competition), cIAP2 BIR2
# Description: as §1
# cIAP2-BIR3 = cIAP2-BIR3 (Homo sapiens (Human), UniProt Q13489); test: BIR binding assay (FRET competition), cIAP2 BIR3; details: for cIAP2 BIR3 vs BIR2 separation window: fold separation (FS) for cIAP2
# Description: as §1
# cIAP1-BIR2 = cIAP1-BIR2 (Homo sapiens (Human), UniProt Q13490); test: BIR binding assay (FRET competition), cIAP1 BIR2
# Description: as §1
# cIAP1-BIR3 = cIAP1-BIR3 (Homo sapiens (Human), UniProt Q13490); test: BIR binding assay (FRET competition), cIAP1 BIR3; details: for cIAP1 BIR3 vs BIR2 separation window: fold separation (FS) for cIAP1
# Description: as §1
# Chain of cIAP2-BIR2 (Q13489 158-242): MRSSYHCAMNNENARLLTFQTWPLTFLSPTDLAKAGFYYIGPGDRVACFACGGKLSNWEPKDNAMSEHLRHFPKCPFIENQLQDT
# Chain of cIAP1-BIR3 (Q13490 253-363): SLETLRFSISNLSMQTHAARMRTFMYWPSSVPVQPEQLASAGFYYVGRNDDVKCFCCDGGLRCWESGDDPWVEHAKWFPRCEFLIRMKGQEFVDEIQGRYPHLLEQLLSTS
# Chain of cIAP1-BIR2 (Q13490 173-257): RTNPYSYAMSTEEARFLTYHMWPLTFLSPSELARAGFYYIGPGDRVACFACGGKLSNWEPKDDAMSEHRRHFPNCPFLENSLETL
# Chain of cIAP2-BIR3 (Q13489 238-349): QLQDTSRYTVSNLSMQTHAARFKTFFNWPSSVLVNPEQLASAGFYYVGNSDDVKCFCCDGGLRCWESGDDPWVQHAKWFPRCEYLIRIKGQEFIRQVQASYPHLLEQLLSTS
# Chain of XIAP-BIR3 (P98170 241-356): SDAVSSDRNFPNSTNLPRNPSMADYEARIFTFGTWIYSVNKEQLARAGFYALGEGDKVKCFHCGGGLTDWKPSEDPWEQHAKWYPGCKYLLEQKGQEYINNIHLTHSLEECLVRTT
structure (smiles),measurement,setting,value
C[C@@H]1CN(CC(=O)N2CC(C)(C)c3[nH]c(=O)c(Cc4ccc(Cl)cc4C#N)cc32)[C@@H](CN2CCO[C@H](COc3cccc(OC[C@@H]4CN(C[C@H]5CN[C@H](C)CN5CC(=O)N5CC(C)(C)c6[nH]c(=O)c(Cc7ccc(Cl)cc7C#N)cc65)CCO4)c3)C2)CN1 [Compound 189],EC50,[1],0.49 to 12.6 nM
same,IC50,XIAP-BIR3,31.6 to 501 nM
same,IC50,cIAP2-BIR2,3160 to 10000 nM
same,IC50,cIAP2-BIR3,15.8 to 31.6 nM
same,cIAP2 BIR3 vs BIR2 separation window,cIAP2-BIR3,"+++ (10,000>FS>1,000)"
same,IC50,cIAP1-BIR2,1000 to 3160 nM
same,IC50,cIAP1-BIR3,15.8 to 31.6 nM
same,cIAP1 BIR3 vs BIR2 separation window,cIAP1-BIR3,"+++ (10,000>FS>1,000)"
"C[C@@H]1CN(CC(=O)N2CC(C)(C)c3[nH]c(=O)c(Cc4ccc(F)cc4)cc32)[C@@H](CN2CCO[C@H](COCCCCCOC[C@@H]3CN(C[C@H]4CN[C@H](C)CN4CC(=O)N4CC(C)(C)c5[nH]c(=O)c(Cc6ccc(F)cc6)cc54)CCO3)C2)CN1 [Example 82, 1,1′-(2,2′-((3R,3′R,6R,6′R)-(((2S,2'S)-((pentane-1,5-diylbis(oxy))bis(methylene))bis(morpholine-2,4-diyl))bis(methylene))bis(3-methylpiperazine-6,1-diyl))bis(acetyl))bis(6-(4-fluorobenzyl)-3,3-dimethyl-1,2,3,4-tetrahydro-5H-pyrrolo[3,2-b]pyridin-5-one)]",EC50,[1],0.49 to 12.6 nM
same,IC50,XIAP-BIR3,31.6 to 501 nM
same,IC50,cIAP2-BIR2,1000 to 3160 nM
same,IC50,cIAP2-BIR3,15.8 to 31.6 nM
same,cIAP2 BIR3 vs BIR2 separation window,cIAP2-BIR3,"+++ (10,000>FS>1,000)"
same,IC50,cIAP1-BIR2,10000 to 51300 nM
same,IC50,cIAP1-BIR3,15.8 to 31.6 nM
same,cIAP1 BIR3 vs BIR2 separation window,cIAP1-BIR3,"++++ (FS>10,000)"
"C[C@@H]1CN(CC(=O)N2CC(C)(C)c3[nH]c(=O)c(Cc4ccc(F)cc4)cc32)[C@@H](CN2CCO[C@H](COc3ccc(F)c(OC[C@@H]4CN(C[C@H]5CN[C@H](C)CN5CC(=O)N5CC(C)(C)c6[nH]c(=O)c(Cc7ccc(F)cc7)cc65)CCO4)c3F)C2)CN1 [Example 74, 1,1′-(2,2′-((3R,3′R,6R,6′R)-(((2S,2'S)-(((2,4-difluoro-1,3-phenylene)bis(oxy))bis(methylene))bis(morpholine-2,4-diyl))bis(methylene))bis(3-methylpiperazine-6,1-diyl))bis(acetyl))bis(6-(4-fluorobenzyl)-3,3-dimethyl-1,2,3,4-tetrahydro-5H-pyrrolo[3,2-b]pyridin-5-one)]",EC50,[1],0.49 to 12.6 nM
same,IC50,XIAP-BIR3,1.38 to 7.94 nM
same,IC50,cIAP2-BIR2,1000 to 3160 nM
same,IC50,cIAP2-BIR3,1.38 to 7.94 nM
same,cIAP2 BIR3 vs BIR2 separation window,cIAP2-BIR3,"+++ (10,000>FS>1,000)"
same,IC50,cIAP1-BIR2,1000 to 3160 nM
same,IC50,cIAP1-BIR3,1.38 to 7.94 nM
same,cIAP1 BIR3 vs BIR2 separation window,cIAP1-BIR3,"+++ (10,000>FS>1,000)"
"C[C@@H]1CN(CC(=O)N2CC(C)(C)c3[nH]c(=O)c(Cc4ccc(Cl)cc4C#N)cc32)[C@@H](CN2CCO[C@H](C(=O)NCc3ccc(CNC(=O)[C@@H]4CN(C[C@H]5CN[C@H](C)CN5CC(=O)N5CC(C)(C)c6[nH]c(=O)c(Cc7ccc(Cl)cc7C#N)cc65)CCO4)cc3)C2)CN1 [Compound 171, (2S,2′S)-N,N′-(1,4-phenylenebis(methylene)) bis(4-(((2R,5R)-1-(2-(6-(4-chloro-2-cyanobenzyl)-3,3-dimethyl-5-oxo-2,3,4,5-tetrahydro-1H-pyrrolo[3,2-b]pyridin-1-yl)-2-oxoethyl)-5-methylpiperazin-2-yl)methyl)morpholine-2-carboxamide)]",EC50,[1],12.6 to 63.1 nM
same,IC50,XIAP-BIR3,31.6 to 501 nM
same,IC50,cIAP2-BIR2,22.4 to 1000 nM
same,IC50,cIAP2-BIR3,1.38 to 7.94 nM
same,cIAP2 BIR3 vs BIR2 separation window,cIAP2-BIR3,"++ (1,000>FS>100)"
same,IC50,cIAP1-BIR2,22.4 to 1000 nM
same,IC50,cIAP1-BIR3,1.38 to 7.94 nM
same,cIAP1 BIR3 vs BIR2 separation window,cIAP1-BIR3,"++ (1,000>FS>100)"
"C[C@@H]1CN(CC(=O)N2CC(C)(C)c3[nH]c(=O)c(Cc4ccc(Cl)cc4)cc32)[C@@H](CN2CCO[C@H](C(=O)NCc3ccc(CNC(=O)[C@@H]4CN(C[C@H]5CN[C@H](C)CN5CC(=O)N5CC(C)(C)c6[nH]c(=O)c(Cc7ccc(Cl)cc7)cc65)CCO4)cc3)C2)CN1 [Compound 161, (2S,2′S)-N,N′-(1,4-phenylenebis(methylene)) bis(4-(((2R,5R)-1-(2-(6-(4-chlorobenzyl)-3,3-dimethyl-5-oxo-2,3,4,5-tetrahydro-1H-pyrrolo[3,2-b]pyridin-1-yl)-2-oxoethyl)-5-methylpiperazin-2-yl)methyl)morpholine-2-carboxamide)]",EC50,[1],0.49 to 12.6 nM
same,IC50,XIAP-BIR3,7.94 to 15.8 nM
same,IC50,cIAP2-BIR2,10000 to 51300 nM
same,IC50,cIAP2-BIR3,1.38 to 7.94 nM
same,cIAP2 BIR3 vs BIR2 separation window,cIAP2-BIR3,"++++ (FS>10,000)"
same,IC50,cIAP1-BIR2,22.4 to 1000 nM
same,IC50,cIAP1-BIR3,1.38 to 7.94 nM
same,cIAP1 BIR3 vs BIR2 separation window,cIAP1-BIR3,"+++ (10,000>FS>1,000)"
"Cc1cc(OC[C@@H]2CN(C[C@H]3CN[C@H](C)CN3CC(=O)N3CC(C)(C)c4[nH]c(=O)c(Cc5ccc(F)cc5)cc43)CCO2)cc(OC[C@@H]2CN(C[C@H]3CN[C@H](C)CN3CC(=O)N3CC(C)(C)c4[nH]c(=O)c(Cc5ccc(F)cc5)cc43)CCO2)c1 [Example 86, 1,1′-(2,2′-((3R,3′R,6R,6′R)-(((2S,2'S)-(((5-methyl-1,3-phenylene)bis(oxy))bis(methylene))bis(morpholine-2,4-diyl))bis(methylene))bis(3-methylpiperazine-6,1-diyl))bis(acetyl))bis(6-(4-fluorobenzyl)-3,3-dimethyl-1,2,3,4-tetrahydro-5H-pyrrolo[3,2-b]pyridin-5-one)]",EC50,[1],0.49 to 12.6 nM
same,IC50,XIAP-BIR3,15.8 to 31.6 nM
same,IC50,cIAP2-BIR2,1000 to 3160 nM
same,IC50,cIAP2-BIR3,7.94 to 15.8 nM
same,cIAP2 BIR3 vs BIR2 separation window,cIAP2-BIR3,"+++ (10,000>FS>1,000)"
same,IC50,cIAP1-BIR2,1000 to 3160 nM
same,IC50,cIAP1-BIR3,7.94 to 15.8 nM
same,cIAP1 BIR3 vs BIR2 separation window,cIAP1-BIR3,"+++ (10,000>FS>1,000)"
"C[C@@H]1CN(CC(=O)N2CC(C)(C)c3[nH]c(=O)c(Cc4ccc(F)cc4)cc32)[C@@H](CN2CCC(CCOc3cccc(OCCC4CCN(C[C@H]5CN[C@H](C)CN5CC(=O)N5CC(C)(C)c6[nH]c(=O)c(Cc7ccc(F)cc7)cc65)CC4)c3)CC2)CN1 [Example 108, 1,1′-(2,2′-((3R,3′R,6R,6′R)-((((1,3-phenylenebis(oxy))bis(ethane-2,1-diyl))bis(piperidine-4,1-diyl))bis(methylene))bis(3-methylpiperazine-6,1-diyl))bis(acetyl))bis(6-(4-fluorobenzyl)-3,3-dimethyl-1,2,3,4-tetrahydro-5H-pyrrolo[3,2-b]pyridin-5-one)]",EC50,[1],12.6 to 63.1 nM
same,IC50,XIAP-BIR3,31.6 to 501 nM
same,IC50,cIAP2-BIR2,10000 to 51300 nM
same,IC50,cIAP2-BIR3,15.8 to 31.6 nM
same,IC50,cIAP1-BIR3,15.8 to 31.6 nM
"Cc1cc(Cl)ccc1Cc1cc2c([nH]c1=O)C(C)(C)CN2C(=O)CN1C[C@@H](C)NC[C@@H]1CN1CCO[C@H](C(=O)NCc2ccc(CNC(=O)[C@@H]3CN(C[C@H]4CN[C@H](C)CN4CC(=O)N4CC(C)(C)c5[nH]c(=O)c(Cc6ccc(Cl)cc6C)cc54)CCO3)cc2)C1 [Compound 168, (2S,2′S)-N,N′-(1,4-phenylenebis(methylene)) bis(4-(((2R,5R)-1-(2-(6-(4-chloro-2-methylbenzyl)-3,3-dimethyl-5-oxo-2,3,4,5-tetrahydro-1H-pyrrolo[3,2-b]pyridin-1-yl)-2-oxoethyl)-5-methylpiperazin-2-yl)methyl)morpholine-2-carboxamide)]",EC50,[1],0.49 to 12.6 nM
same,IC50,XIAP-BIR3,31.6 to 501 nM
same,IC50,cIAP2-BIR2,22.4 to 1000 nM
same,IC50,cIAP2-BIR3,7.94 to 15.8 nM
same,cIAP2 BIR3 vs BIR2 separation window,cIAP2-BIR3,"++ (1,000>FS>100)"
same,IC50,cIAP1-BIR3,15.8 to 31.6 nM
